Measured values taken from the supplement of paper PMC10307832.

Legend:
Assay in all cases: relative viability (nuclei count vs DMSO), 5 days (fraction); higher = more cells survive
Omipalisib + Linsitinib = compound: COc1ncc(-c2ccc3nccc(-c4ccnnc4)c3c2)cc1NS(=O)(=O)c1ccc(F)cc1F [Omipalisib] + C[C@]1(O)C[C@@H](c2nc(-c3ccc4ccc(-c5ccccc5)nc4c3)c3c(N)nccn32)C1 [Linsitinib] (partner 1 µM)
In short: (§1)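 Five library-drug doses in √10 steps were combined with a fixed anchor-drug dose, or a single drug was given alone, by pin tool to lung cancer cell lines in 1536-well plates the day after seeding. Nuclei were stained and counted after 5 days. Relative viability is the nuclei count in treated wells over that in vehicle wells, taken as the median of duplicate plates.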

Omipalisib + Foretinib = compound: COc1ncc(-c2ccc3nccc(-c4ccnnc4)c3c2)cc1NS(=O)(=O)c1ccc(F)cc1F [Omipalisib] + COc1cc2c(Oc3ccc(NC(=O)C4(C(=O)Nc5ccc(F)cc5)CC4)cc3F)ccnc2cc1OCCCN1CCOCC1 [Foretinib] (partner 0.25 µM)
In short: as §1

Omipalisib + Dasatinib = compound: COc1ncc(-c2ccc3nccc(-c4ccnnc4)c3c2)cc1NS(=O)(=O)c1ccc(F)cc1F [Omipalisib] + Cc1nc(Nc2ncc(C(=O)Nc3c(C)cccc3Cl)s2)cc(N2CCN(CCO)CC2)n1 [Dasatinib] (partner 0.075 µM)
In short: as §1

Omipalisib + Decitabine = compound: COc1ncc(-c2ccc3nccc(-c4ccnnc4)c3c2)cc1NS(=O)(=O)c1ccc(F)cc1F [Omipalisib] + Nc1ncn([C@H]2C[C@H](O)[C@@H](CO)O2)c(=O)n1 [Decitabine] (partner 2 µM)
In short: as §1

Omipalisib + Navitoclax = compound: COc1ncc(-c2ccc3nccc(-c4ccnnc4)c3c2)cc1NS(=O)(=O)c1ccc(F)cc1F [Omipalisib] + CC1(C)CCC(c2ccc(Cl)cc2)=C(CN2CCN(c3ccc(C(=O)NS(=O)(=O)c4ccc(N[C@H](CCN5CCOCC5)CSc5ccccc5)c(S(=O)(=O)C(F)(F)F)c4)cc3)CC2)C1 [Navitoclax] (partner 0.5 µM)
In short: as §1

Omipalisib + Pemetrexed = compound: COc1ncc(-c2ccc3nccc(-c4ccnnc4)c3c2)cc1NS(=O)(=O)c1ccc(F)cc1F [Omipalisib] + Nc1nc2[nH]cc(CCc3ccc(C(=O)N[C@@H](CCC(=O)O)C(=O)O)cc3)c2c(=O)[nH]1 [Pemetrexed] (partner 0.2 µM)
In short: as §1

Row | Cell Line | relative viability (Omipalisib + Linsitinib; first compound 0.0003 µM) | relative viability (Omipalisib + Linsitinib; first compound 0.003 µM) | relative viability (Omipalisib + Linsitinib; first compound 0.03 µM) | relative viability (Omipalisib + Foretinib; first compound 0.0003 µM) | relative viability (Omipalisib + Foretinib; first compound 0.003 µM) | relative viability (Omipalisib + Foretinib; first compound 0.03 µM) | relative viability (Omipalisib + Dasatinib; first compound 0.0003 µM) | relative viability (Omipalisib + Dasatinib; first compound 0.003 µM) | relative viability (Omipalisib + Dasatinib; first compound 0.03 µM) | relative viability (Omipalisib + Decitabine; first compound 0.0003 µM) | relative viability (Omipalisib + Decitabine; first compound 0.003 µM) | relative viability (Omipalisib + Decitabine; first compound 0.03 µM) | relative viability (Omipalisib + Navitoclax; first compound 0.0003 µM) | relative viability (Omipalisib + Navitoclax; first compound 0.003 µM) | relative viability (Omipalisib + Navitoclax; first compound 0.03 µM) | relative viability (Omipalisib + Pemetrexed; first compound 0.0003 µM) | relative viability (Omipalisib + Pemetrexed; first compound 0.003 µM) | relative viability (Omipalisib + Pemetrexed; first compound 0.03 µM)
1 | RERF-LC-KJ | 0.883 | 0.716 | 0.697 | 0.786 | 0.58 | 0.594 | 0.757 | 0.509 | 0.407 | 0.637 | 0.502 | 0.434 | 0.79 | 0.7 | 0.627 | 0.47 | 0.439 | 0.414
2 | HCC-78 | 0.389 | 0.358 | 0.24 | 0.436 | 0.433 | 0.266 | 0.359 | 0.313 | 0.219 | 0.623 | 0.462 | 0.344 | 0.68 | 0.466 | 0.193 | 0.88 | 0.927 | 0.922
3 | NCI-H1755 | 1 | 0.942 | 0.516 | 0.911 | 0.821 | 0.51 | 0.445 | 0.271 | 0.236 | 0.714 | 0.555 | 0.485 | 1.01 | 0.848 | 0.368 | 0.504 | 0.393 | 0.402
4 | HCC-366 | 0.394 | 0.156 | 0.0479 | 0.849 | 0.772 | 0.189 | 0.575 | 0.2 | 0.179 | 0.285 | 0.217 | 0.105 | 1.03 | 0.341 | 0.12 | 0.214 | 0.257 | 0.171
5 | NCI-H2405 | 0.931 | 0.68 | 0.387 | 1.01 | 0.756 | 0.39 | 0.213 | 0.204 | 0.166 | 0.701 | 0.482 | 0.308 | 0.812 | 0.618 | 0.323 | 1.12 | 0.718 | 0.444
6 | COR-L 105 | 0.963 | 0.835 | 0.717 | 1.17 | 1.01 | 0.896 | 0.301 | 0.287 | 0.186 | 0.593 | 0.589 | 0.556 | 0.701 | 0.714 | 0.434 | 0.995 | 1.11 | 0.942
7 | NCI-H1395 | 1.03 | 0.905 | 0.592 | 0.916 | 0.886 | 0.586 | 0.417 | 0.362 | 0.348 | 0.661 | 0.625 | 0.567 | 1.35 | 0.991 | 0.665 | 0.737 | 0.657 | 0.602
8 | NCI-H1915 | 1.08 | 1.12 | 1.01 | 1.05 | 1.08 | 0.983 | 0.278 | 0.257 | 0.275 | 0.248 | 0.249 | 0.227 | 0.813 | 0.768 | 0.789 | 0.545 | 0.534 | 0.509
9 | ABC-1 | 0.771 | 0.572 | 0.586 | 1.05 | 0.824 | 0.561 | 0.424 | 0.499 | 0.35 | 1.05 | 0.99 | 0.742 |  |  |  |  |  | 
10 | NCI-H1650 |  |  |  | 1.19 | 0.968 | 0.656 | 0.326 | 0.237 | 0.189 | 0.272 | 0.395 | 0.42 | 1.18 | 1.05 | 0.409 | 0.37 | 0.38 | 0.322
11 | NCI-H358 | 0.639 | 0.457 | 0.289 | 0.626 | 0.591 | 0.371 | 0.127 | 0.11 | 0.131 | 0.199 | 0.174 | 0.141 |  |  |  | 0.182 | 0.164 | 0.131
12 | NCI-H2170 |  |  |  | 0.945 | 0.565 | 0.565 | 0.517 | 0.426 | 0.453 | 0.446 | 0.339 | 0.29 | 0.414 | 0.28 | 0.222 | 0.26 | 0.262 | 0.253
13 | NCI-H1792 | 0.417 | 0.441 | 0.164 |  |  |  | 0.566 | 0.521 | 0.21 | 0.428 | 0.37 | 0.101 | 0.583 | 0.515 | 0.235 | 0.835 | 0.319 | 0.103
14 | LCLC-103H | 1.17 | 1.08 | 0.428 | 0.676 | 0.418 | 0.236 | 0.467 | 0.326 | 0.167 | 0.69 | 0.639 | 0.4 |  |  |  | 0.503 | 0.411 | 0.405
15 | NCI-H650 | 0.76 | 0.689 | 0.47 | 1.04 | 0.877 | 0.613 | 0.469 | 0.317 | 0.266 | 0.375 | 0.257 | 0.321 |  |  |  | 0.903 | 0.634 | 0.453
16 | NCI-H2228 | 0.724 | 0.282 | 0.211 | 0.957 | 0.74 | 0.25 | 0.43 | 0.275 | 0.133 |  |  |  | 0.972 | 0.581 | 0.204 | 0.351 | 0.306 | 0.221
17 | CAL-12T | 0.75 | 0.822 | 0.513 | 1.26 | 1.06 | 0.684 | 0.53 | 0.241 | 0.0952 |  |  |  | 1.1 | 1.17 | 0.466 | 1.17 | 1.15 | 0.721
18 | NCI-H727 | 0.276 | 0.245 | 0.234 | 0.937 | 0.609 | 0.421 | 0.353 | 0.327 | 0.366 | 0.778 | 0.712 | 0.755 | 0.458 | 0.229 | 0.152 |  |  | 
